Entries after “also recorded” stand apart in the source; their conditions may differ.
Assays:
Format in all cases: cell-based
[1] = tested on: H838 NRF2-ARE-Fluc stable cell line; experiment: H838 Nrf2 assay: NRF2-ARE firefly luciferase reporter gene assay; conditions: Homo sapiens, NCI-H838, read-out: Potency of inhibition, H838
From the text: H838 is a NSCLC cell line with LOF Keap1 activity and constitutive translocation of NRF2 into the nucleus. A firefly luciferase reporter construct driven by a minimal promoter of NRF2-specific ARE is stably expressed in the H838 cells. This cell line was used as a confirmation assay to make sure hits identified from primary screening and that passed counterscreen assays worked in different cell types with a constitutively active NRF2 pathway (deficiency in Keap1).
This assay was very similar to the primary assay except that the cell line was changed. […] The final concentration of DMSO was maintained at 0.46%. Control compounds Budesonide and Staurosporine were both added at a concentration of 2 mM and Budesonide was also added as a 1:10 titration, starting at 200 μM, to achieve dose-response. After an 18-24 hour incubation at 37° C., 95% humidity, and 5% CO2, 1 μL of 5× CellTiter-Fluor non-lytic cell viability assay reagent (Promega, Madison Wis.) was added into the each well of the plates. The plates were then incubated for 30 minutes at room temperature before they were read on a ViewLux plate imager (Perkin Elmer, Waltham Mass.) using an excitation wavelength of 405 nm and an emission wavelength of 525 nm.
Representative compounds were assayed to assess the potency of inhibition in an A549 NRF2-ARE-Fluc stable cell line (A549 Nrf2 assay), in an H838 NRF2-ARE-Fluc stable cell line (H838 Nrf2 assay), and in an H1437 NRF2-ARE-Fluc stable cell line (H1437 Nrf2 assay) (see Table 3).

[2] = tested on: H1437 NRF2-ARE-Fluc stable cell line; experiment: H1437 Nrf2 assay: NRF2-ARE firefly luciferase reporter gene assay; conditions: Homo sapiens, NCI-H1437, H1437 NRF2-ARE-Fluc stable cell line; read-out: Potency of inhibition, H1437
[3] = tested on: mRNA expression of Nrf2 and its downstream target genes, GCLm and NQO1, A549 cells; experiment: Real time RT-PCR of Nrf2 and downstream target genes in A549 cells; conditions: for NRF2 signaling, fold change in mRNA by real time RT-PCR / Nrf2 (and GCLm, NQO1) expression, real time PCR based validation: A549 cells; for NRF2 signaling, fold change in mRNA by real time RT-PCR: 48 h (compounds 1, 3), 72 h (compound 4)
Method: […] The mRNA expression of Nrf2 and its downstream target genes, GCLm and NQO1 was measured by RT-PCR. (NC means no significant change in gene expression in comparison with vehicle group; M represents the concentration of drug used in the gene expression studies and it is twice the IC50 values generated from primary screening with A549-ARE reporter cell lines).

A549 lung cancer cells = experiment: Clonogenic assay in A549 lung cancer cells; conditions: combination with chemotherapeutic drug
Method: For the clonogenic assay, exponentially growing cells were counted, diluted, and seeded in triplicate at 1,000 cells/well in a 6-well plate. Cells were incubated for 24 h in a humidified CO2 incubator at 37° C., and exposed to drugs or vehicle for 48 h. The chemotherapeutic drugs, etoposide, cisplatin, or carboplatin were added to some of the samples to see the effect of the drug in the presence and absence of the small inhibitors of Nrf2. After the treatment period, the drug containing media was replaced with complete growth media. To assess clonogenic survival following the drug treatment, A549 cells from a type of non-small cell lung cancer cell line were incubated in complete growth medium at 37° C. for 10-14 days and then stained with 50% methanol-crystal violet solution. Only colonies with more than 50 cells were counted (final concentration of DMSO in the growth media was 0.1%).
(§1) For the clonogenic assays, 1,000 cells/well were plated in a 6-well plate. The next day, the cells were treated with vehicle (DMSO), Nrf2 inhibitor, a chemotherapeutic drug, or a combination of Nrf2 and chemotherapeutic drugs for 48 hrs. The drug containing media was then replaced with regular growth media and the cells were incubated for an additional 10 days. At the end of incubation period, the colonies were stained with Crystal Violet and imaged.

[4] = tested on: Rhabdomyosarcoma cells (Rh30); experiment: Growth of rhabdomyosarcoma cells (clonogenic / soft agar); conditions: for Growth of rhabdomyosarcoma cells, clonogenic assay, single agent: single agents
Method: (A) Ewing sarcoma cells (A4573) cells were on soft agar and treated with doxorubicin (2 nM) singly or in combination with compound 4 (10 μM) for 72 h. At the end of treatment, regular growth media was added and cells were further incubated for 8-10 days and colonies were stained with crystal violet and counted. (B) Rhabdomyosarcoma cells (Rh30) cells were on soft agar and treated with doxorubicin (2 nM) and etoposide (5-nM) singly or in combination with compound 4 (10 μM) for 72 h. At the end of treatment, regular growth media was added and cells were further incubated for 8-10 days and colonies were stained with crystal violet and counted;
as §1

osteosarcoma cells = experiment: Clonogenic assay in osteosarcoma cells; conditions: for Growth of osteosarcoma cells, single agent: single agents
Method: as §1

[5] = tested on: pancreatic cancer cells (Panc1); experiment: Clonogenic assay in Panc1 pancreatic cancer cells; conditions: for Growth of Panc1 cells, combination with gemcitabine: gemcitabine (10 nM in figure legends)
Method: (§2) (A-B) Panc1 and MiaPaCa cells were treated gemcitabine (10 nM) singly or in combination with compound 1 for 72 h. At the end of treatment, regular growth media was added and cells were further incubated for 8-10 days and stained with crystal violet;
as §1

[6] = tested on: pancreatic cancer cells (MiaPaCa); experiment: Clonogenic assay in MiaPaCa pancreatic cancer cells; conditions: for Growth of MiaPaCa cells, combination with gemcitabine: gemcitabine (10 nM in figure legends)
Method: as §2, §1

## O=C(Nc1ncc(Cc2ccc(C(F)(F)F)cc2)s1)c1ccc(-c2cccc([N+](=O)[O-])c2)o1 [Compound 1]
[1]
  IC50: < 5 µM
[2]
  IC50: < 5 µM
[3]
  NRF2 signaling, fold change in mRNA by real time RT-PCR: inhibit NRF2 signaling
[3]; cell line not given
  Nrf2, GCLm, and NQO1 gene expression, real time PCR based validation assay: decrease in Nrf2, GCLm, and NQO1 gene expression
A549 lung cancer cells
  Cytotoxicity of chemotherapeutic drugs in combination with the compound, clonogenic assay: more effective in combination with a chemotherapeutic drug
[4]
  Growth of rhabdomyosarcoma cells, clonogenic assay, single agent: suppress growth of rhabdomyosarcoma cells
Osteosarcoma cells
  Growth of osteosarcoma cells, combination with doxorubicin: suppressed the growth of osteosarcoma cells
  Growth of osteosarcoma cells, single agent: suppressed the growth of osteosarcoma cells
[5]
  Growth of Panc1 cells, single agent: suppressed the growth of two different pancreatic cell lines
  Growth of Panc1 cells, combination with gemcitabine: enhance the cytotoxicity of gemcitabine; also recorded: potentiates the cytotoxicity of standard care chemotherapy drugs (gemcitabine)
[6]
  Growth of MiaPaCa cells, single agent: suppressed the growth of two different pancreatic cell lines
  Growth of MiaPaCa cells, combination with gemcitabine: enhance the cytotoxicity of gemcitabine; also recorded: potentiates the cytotoxicity of standard care chemotherapy drugs (gemcitabine)

## CC1(C)CC2CC(C)(CN2S(=O)(=O)c2ccc(C(=O)Nc3ccc(Cl)c(S(=O)(=O)N4CCOCC4)c3)cc2)C1 (stereo not shown) [compound 3]
[1]
  IC50: < 5 µM
[2]
  IC50: < 5 µM
[3]; A549 and H1437 cells
  NQO1 and GCLm expression, real time PCR: Inhibition of NQO1 expression as well as some inhibition of GCLm expression
[3]
  Nrf2 (and GCLm, NQO1) expression, real time PCR based validation: inhibit Nrf2 expression
  NRF2 signaling, fold change in mRNA by real time RT-PCR: inhibit NRF2 signaling
A549 lung cancer cells
  Cytotoxicity of chemotherapeutic drugs in combination with the compound, clonogenic assay: enhance the cytotoxicity of standard care chemotherapeutic drugs
[4]
  Growth of rhabdomyosarcoma cells, clonogenic assay, single agent: suppress growth of rhabdomyosarcoma cells
Osteosarcoma cells
  Growth of osteosarcoma cells, combination with doxorubicin: suppressed the growth of osteosarcoma cells
  Growth of osteosarcoma cells, single agent: suppressed the growth of osteosarcoma cells
[5]
  Growth of Panc1 cells, single agent: suppressed the growth of two different pancreatic cell lines; also recorded: significant growth inhibitory effect as a single agent
  Growth of Panc1 cells, combination with gemcitabine: enhance the cytotoxicity of gemcitabine
[6]
  Growth of MiaPaCa cells, single agent: suppressed the growth of two different pancreatic cell lines; also recorded: significant growth inhibitory effect as a single agent
  Growth of MiaPaCa cells, combination with gemcitabine: enhance the cytotoxicity of gemcitabine

## Cc1ccccc1C(=O)N1CCc2cc(-c3nc(NC(=O)Cc4ccc5c(c4)OCO5)sc3C)ccc21 [compound 4]
[1]
  IC50: 5 to 25 µM
[2]
  IC50: < 5 µM
[3]; 5 μM
  NRF2 and its target genes, time course: Time dependent reduction in NRF2 and its target genes
[3]
  Nrf2 (and GCLm, NQO1) expression, real time PCR based validation: significant reduction in Nrf2, GCLm, and NQO1 expression
  NRF2 signaling, fold change in mRNA by real time RT-PCR: inhibits NRF2 signaling
A549 lung cancer cells
  Cytotoxicity of chemotherapeutic drugs in combination with the compound, clonogenic assay: more effective in combination with a chemotherapeutic drug; also recorded: potentiates the toxicity of standard care chemotherapy drugs
[4]; 10 μM with doxorubicin (2 nM) and etoposide, 72 h
  Colony growth of Rh30 cells on soft agar, combination: potentiates the cytotoxicity of standard care chemotherapy drugs
[4]; 10 μM, 72 h
  Colony growth of Rh30 cells on soft agar, single agent: significant growth inhibitory activity as single agent
[4]
  Growth of rhabdomyosarcoma cells, clonogenic assay, single agent: suppress growth of rhabdomyosarcoma cells
Osteosarcoma cells
  Growth of osteosarcoma cells, combination with doxorubicin: suppressed the growth of osteosarcoma cells
  Growth of osteosarcoma cells, single agent: suppressed the growth of osteosarcoma cells
[5]
  Growth of Panc1 cells, single agent: suppressed the growth of two different pancreatic cell lines; also recorded: significant growth inhibitory activity as single agent
  Growth of Panc1 cells, combination with gemcitabine: enhance the cytotoxicity of gemcitabine; also recorded: potentiates the cytotoxicity of standard care chemotherapy drugs (gemcitabine)
[6]
  Growth of MiaPaCa cells, single agent: suppressed the growth of two different pancreatic cell lines; also recorded: significant growth inhibitory activity as single agent
  Growth of MiaPaCa cells, combination with gemcitabine: enhance the cytotoxicity of gemcitabine; also recorded: potentiates the cytotoxicity of standard care chemotherapy drugs (gemcitabine)
